How the values were obtained:
[1] = 700 mOsm/Kg, non-salt compound alone; previously tested (WO2015/028969); cited from earlier work
[2] = tested on: KBM7 cells carrying an out-of-frame tdTomato reporter; assay: Effect of carbohydrate supplements on Cas9/sgRNA transduction (tdTomato reporter); type: cell-based; conditions: carbohydrate 0.8% w/v, 40 minutes, 327 mM NaCl, 200 mM GABA, read two days after
Protocol: (§1) KBM7 cells carrying an out-of-frame tdTomato reporter were transduced for 40 minutes with recombinant Cas9 protein and sgRNA targeting the out-of-frame region in the tdTomato reporter. Transductions were carried out in 1× iTOP transduction buffer, supplemented with 327 mM NaCl and 200 mM GABA. Indicated carbohydrates were added at 0.8% w/v final concentration. Two days after transduction, tdTomato fluorescence was determined by flow cytometry analysis.
as §1, with “The effect of various carbohydrates on transduction efficiency was tested in the iTOP buffer. KBM7” for “KBM7”, “carbohydrates (sorbitol, lactulose, sucrose, trehalose and myo-inositol)” for “carbohydrates”, “analysis. Higher levels of tdTomato fluorescence were indicative of greater transduction efficiency.” for “analysis.”

[3] = tested on: MEFs; assay: BrdU incorporation 24 hrs after beta-lactamase transduction; type: cell-based, mouse; conditions: see FIGS. 6A-6D
Protocol: Third column: Relative β-lactamase protein transduction activity; Fourth column: Relative BrdU incorporation 24 hrs after β-lactamase transduction. MEFs were transduced for 3 hours with 1 μM β-lactamase protein at a NaCl adjusted osmolality of 700 mOsm/Kg in transduction buffer containing 30 mM of Glycerol and 15 mM of Glycine and 25 mM of the indicated transduction compounds. β-lactamase incorporation of the reference compound (NDSB201, #01) was set at 100%. Open circles indicate relative BrdU incorporation by the transduced cells. BrdU incorporation of untransduced cells was set at 100% and BrdU incorporation of mitomycin C-treated cells was set at 0%.

[4] = tested on: sodium-hydrogen antiporter (Nhe) proteins; assay: Inhibition of protein transduction by Na+/H+ exchange inhibitors; type: cell-based
From the text: Without wishing to be bound by theory, the inventors hypothesise that activation of such Nhe transporters leads to activation of the macropinocytosis pathway, which is the first step in the transduction process. Thus, in some embodiments, the salt is any salt able to bind to and/or activate a sodium/hydrogen (Na+/H+) transporter, such as an Nhe transporter, for example an Nhe1 transporter. Nhe1 is a ubiquitous membrane-bound enzyme involved in volume- and pH-regulation of vertebrate cells.

Compound	induction of protein transduction [1]	transduction efficiency (tdTomato fluorescence, in words) [2]	further results
OC[C@H]1O[C@@H](O[C@@H]2[C@@H](CO)OC(O)(CO)[C@H]2O)[C@H](O)[C@@H](O)[C@H]1O (mixture of isomers) [lactulose]	failed to induce protein transduction	closely followed	–
NCCCC(=O)O [#20]	–	–	cell viability / proliferation / survival (in words) [3]: particularly good cell survival rates
CN(C)c1nc(N)c(C(=O)N=C(N)N)nc1Cl [DMA]	–	–	inhibition of protein transduction [4]: strongly inhibited
CCN(c1nc(N)c(C(=O)NC(=N)N)nc1Cl)C(C)C [EIPA]	–	–	inhibition of protein transduction [4]: strongly inhibited
OC[C@@H](O)[C@@H](O)[C@H](O)[C@H](O)CO [mannitol]	failed to induce protein transduction	–	–
O[C@H]1[C@H](O)[C@@H](O)[C@H](O)[C@@H](O)[C@H]1O [myo-inositol]	–	closely followed	–
OC[C@@H](O)[C@@H](O)[C@H](O)[C@@H](O)CO [sorbitol]	failed to induce protein transduction	greatest improvement	–
OC[C@H]1O[C@@](CO)(O[C@H]2O[C@H](CO)[C@@H](O)[C@H](O)[C@H]2O)[C@@H](O)[C@@H]1O [sucrose]	failed to induce protein transduction	improve transduction efficiency	–
OC[C@H]1O[C@H](O[C@H]2O[C@H](CO)[C@@H](O)[C@H](O)[C@H]2O)[C@H](O)[C@@H](O)[C@@H]1O [trehalose]	–	greatest improvement	–

From US12209252B2, “Transduction buffer” (Koninklijke Nederlandse Akademie van Wetenschappen, priority 2015, dated 2025)
